What all share (experiment): NCI anticancer screen, dose series, 48 h
The test system of test [1] is UACC-257 melanoma.
Test [2] deals with HOP-62 NSCLC.
The subject of test [3] is SK-MEL-5 melanoma.
In test [4] the test system is MCF7 breast.
For test [5], the system named is COLO 205 colon.
The subject of test [6] is UACC-62 melanoma.
Test [7] relates to OVCAR-3 ovarian.
In test [8] the test system is MALME-3M melanoma.
Test [9] deals with OVCAR-8 ovarian.
The subject of test [10] is HL-60(TB) leukemia.

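Test compounds were applied to cells in 96-well plates for 48 hours at 5 doses. GI50 = concentration required for 50% inhibition of growth. TGI: total growth inhibition.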

On to `CC(=O)OCC(=O)C1(O)C(C)CC2C3C=C(C)C4=Cc5c(cnn5-c5ccccc5)CC4(C)C3C(O)CC21C` (stereo not drawn), for which the GI50 in test [1] was 2.96 µM; in [2], 1.35 µM; in test [3] it was 1.45 µM; in test [4], 1.47 µM; in test [5], 1.72 µM; in test [6] it was 1.77 µM. In addition, the GI50 in test [7] was 1.67 µM; in [8], 1.5 µM; in test [9], 2.46 µM; in [10], 2.44 µM. For the same compound, the TGI in test [1] came to 12.2 µM; in test [2], 3.52 µM; in test [3] it was 2.87 µM; in [4] it was 5.22 µM; in test [5], 3.26 µM; in [6] it was 3.8 µM. Besides, the TGI in [7] amounted to 3.96 µM; in test [8], 5.2 µM; in test [9], 25.5 µM; in test [10] it was 9.74 µM.

Turning to `O=C(NO)c1cnc(N2CCN(S(=O)(=O)c3ccc4ccccc4c3)CC2)nc1`, the GI50 in test [1] was 0.0249 µM; in test [2], 0.104 µM; in test [3] it was 0.0396 µM; in test [4], 0.0369 µM; in test [5], 0.0564 µM; in [6], 0.0374 µM. Besides, the GI50 in [7] was 0.0955 µM; in test [8] it was 0.0224 µM; in test [9], 0.0276 µM; in test [10], 0.0457 µM. The TGI in test [1] was 0.188 µM; in test [2] it was 5.49 µM; in test [3], 0.15 µM; in test [4] it was above 76 µM; in test [5], 0.294 µM; in [6], 0.22 µM. The TGI in test [7] came to 0.386 µM; in test [8] it was 12.6 µM; in test [9], 1.92 µM; in [10], 29.8 µM.

In the case of `CON`, the GI50 in test [1], in [2], in [3], in test [4], in test [5] and in test [6] was above 100 µM in each case. Moreover, the GI50 in [7], in test [8], in test [9] and in test [10] was above 100 µM in each case. In addition, the TGI in test [1], in test [2], in test [3], in [4], in test [5] and in test [6] was above 100 µM each time. Besides, the TGI in [7], in [8], in [9] and in test [10] was above 100 µM in each case.

On to `CC(C)N(C[C@H]1O[C@@H](n2cnc3c(N)ncnc32)[C@H](O)[C@@H]1O)C1CC(CCc2nc3ccc(C(C)(C)C)cc3[nH]2)C1` (stereo partly drawn), for which the GI50 in test [1] is above 58.7 µM; in test [2], above 100 µM; in [3], above 95.1 µM; in test [4] it was 33.2 µM; in test [5], 38.5 µM; in [6], 99.7 µM. Also, the GI50 in test [7] is above 100 µM; in test [8], 20 µM; in test [9], above 100 µM; in [10], above 65.9 µM. Moreover, the TGI in test [1], in [2], in test [3], in [4], in test [5] and in test [6] was above 100 µM throughout. Besides, the TGI in test [7] is above 100 µM; in [8], above 60.8 µM; in test [9] it was above 100 µM; in test [10], above 100 µM.

Take `CNCCOc1nc2c3cnccc3cc(-c3cc(OC)c(OC)c(OC)c3)c2c2ccncc12`: the GI50 in test [1] was 0.13 µM; in test [2], 0.0224 µM; in test [3] it was 0.0288 µM; in test [4], below 0.01 µM; in test [5], 0.0575 µM; in test [6] it was 0.027 µM. In addition, the GI50 in test [7] was 0.0906 µM; in test [8], 0.0392 µM; in test [9], 0.0418 µM; in [10] it was below 0.0153 µM. Moreover, the TGI in test [1] is 0.728 µM; in test [2], 0.166 µM; in test [3], 0.144 µM; in test [4], 0.275 µM; in test [5], 0.698 µM; in [6], 0.169 µM. Further, the TGI in test [7] turned out to be 0.464 µM; in [8], 0.194 µM; in test [9], 0.466 µM; in test [10], 0.0685 µM.

As for `COc1ccc(-n2sc(=O)n(Cc3ccc(COC(=O)C(C)c4ccc(CC(C)C)cc4)cc3)c2=O)cc1` (stereo not drawn), the GI50 is 2.02 µM in test [1]; 8.84 µM in test [2]; 7.41 µM in test [3]; 1.82 µM in [4]; 1.1 µM in [5]; 4.03 µM in test [6]. The GI50 in [7] was 0.821 µM; in test [8], 1.04 µM; in [9] it was 2.81 µM; in test [10], 1.23 µM. In addition, the TGI is 8.81 µM in test [1]; 21.1 µM in test [2]; 14.5 µM in [3]; 9.54 µM in test [4]; 2.6 µM in [5]; 10.5 µM in test [6]. The TGI amounted to 1.52 µM in test [7], 2.3 µM in test [8], 21.5 µM in [9] and 4.89 µM in test [10].

On to `N#CC[C@H](C1CCCC1)n1cc(-c2ncnc3[nH]ccc23)cn1`, for which the GI50 in test [1] was 44.2 µM; in [2] it was 17.2 µM; in [3] it was 17.2 µM; in test [4], 17.6 µM; in [5] it was 24.6 µM; in test [6], 37 µM. Besides, the GI50 in test [7] was 24.2 µM; in [8] it was 34.1 µM; in [9] it was 30.3 µM; in test [10], 22.7 µM. For the same compound, the TGI was above 100 µM in test [1]; above 100 µM in test [2]; 49 µM in test [3]; above 86.8 µM in [4]; 67.1 µM in test [5]; above 100 µM in test [6]. Further, the TGI is above 67.3 µM in test [7], above 100 µM in test [8], above 100 µM in test [9] and 60.6 µM in [10].

As to `COC(=O)Nc1nc2ccc(Sc3ccccc3)cc2[nH]1`, the GI50 was 3.08 µM in test [1]; 0.277 µM in [2]; 0.146 µM in test [3]; 0.0666 µM in [4]; 0.188 µM in test [5]; 0.405 µM in test [6]. For the same compound, the GI50 in test [7] is 0.123 µM; in test [8], 0.444 µM; in [9], 0.298 µM; in test [10] it was 0.0805 µM. For the same compound, the TGI is above 66.8 µM in test [1]; 4.23 µM in test [2]; 4.08 µM in test [3]; 26 µM in test [4]; 0.533 µM in test [5]; 23.9 µM in [6]. Also, the TGI in [7] amounted to 0.421 µM; in test [8], 18.8 µM; in [9], 3.99 µM; in test [10] it was 0.455 µM.

Take `CCOC(=O)C(Cc1ccc(OC)cc1)C(=O)OCC`: the GI50 in test [1] is 3.31 µM; in [2], 9.51 µM; in test [3] it was 3.65 µM; in [4], 3.03 µM; in test [5], 7.23 µM; in test [6], 4.66 µM. In addition, the GI50 was 3.59 µM in test [7], 9.94 µM in [8], 5.24 µM in test [9] and 2.26 µM in [10]. Further, the TGI in test [1] was 16.3 µM; in [2], 22.6 µM; in test [3] it was 15.3 µM; in test [4], 13.8 µM; in [5] it was 19.7 µM; in test [6] it was 17.3 µM. For the same compound, the TGI amounted to 11.6 µM in [7], 28 µM in [8], 32.5 µM in test [9] and 8.39 µM in [10].

Turning to `NC(=O)NC(=O)C1CCCCC1C(=O)O` (stereo not drawn), the TGI in [1], in [2], in test [3], in test [4], in test [5] and in test [6] was above 100 µM each time. In addition, the TGI in test [7], in test [8], in [9] and in [10] was above 100 µM throughout.

Turning to `CC(C)CNc1nc(N=[N+]=[N-])nc(NCC(C)C)n1`, the GI50 in [1], in test [2], in [3], in test [4], in test [5] and in test [6] was above 10 µM in each case. For the same compound, the GI50 in test [7], in test [8], in [9] and in test [10] was above 10 µM each time. In addition, the TGI in test [1], in test [2], in [3], in test [4], in test [5] and in test [6] was above 10 µM each time. Also, the TGI in [7], in [8], in test [9] and in [10] was above 10 µM in each case.

As to `C[C@@H](Oc1cc(-c2cnn(C3CC4(CCCNC4)C3)c2)cnc1N)c1c(Cl)ccc(F)c1Cl` (stereo partly drawn), the GI50 in test [1] is 1.45 µM; in [2] it was 1.21 µM; in test [3], 1.5 µM; in test [4], 0.363 µM; in [5], 0.384 µM; in test [6], 1.58 µM. The GI50 was 2.02 µM in [7], 1.3 µM in test [8], 2.06 µM in test [9] and 1.16 µM in test [10]. For the same compound, the TGI in test [1] stood at 2.88 µM; in test [2] it was 4.92 µM; in [3], 2.87 µM; in test [4], 1.85 µM; in test [5] it was 1.5 µM; in test [6], 3.09 µM. Moreover, the TGI in test [7] stood at 5.08 µM; in [8], 3.12 µM; in [9], 5.93 µM; in test [10], 3.01 µM.

For the compound `C=C1C(=O)OC2CC3(C)OC3C3OC3C3=CC(OC3=O)C12` (stereo not drawn), the GI50 in test [1] is 1.92 µM; in test [2] it was 15.2 µM; in test [3] it was 14.9 µM; in test [4], 6.05 µM; in test [5] it was 0.539 µM; in test [6], 9.11 µM. Also, the GI50 in test [7] is 2.03 µM; in test [8] it was 2.12 µM; in [9], 3.32 µM; in test [10], 2.13 µM. For the same compound, the TGI in [1] came out at 4.03 µM; in [2], 41.5 µM; in test [3] it was 30.3 µM; in test [4], 27.6 µM; in test [5], 1.25 µM; in [6], 22.3 µM. The TGI is 3.61 µM in test [7], 4.19 µM in test [8], 19.3 µM in test [9] and 4.83 µM in test [10].

On to `COc1ccc(C2C3=C(COC3=O)N(CCO)c3cc4c(cc32)OCCO4)cc1OC` (stereo not drawn), for which the GI50 in [1] is 2.4 µM; in test [2] it was 9.58 µM; in [3], 0.906 µM; in [4], 0.634 µM; in test [5], 1.34 µM; in [7], 1.11 µM. Further, the GI50 in [8] was above 50 µM; in [9] it was 4.46 µM; in test [10] it was 1.28 µM. For the same compound, the TGI in [1] is above 50 µM; in [2], above 50 µM; in test [3] it was above 50 µM; in test [4] it was above 50 µM; in test [5], 3.62 µM; in test [6], above 50 µM. The TGI in [7] is 3 µM; in [8] it was above 50 µM; in [9], above 50 µM; in test [10], 5.65 µM.

With `CN(C)CCOc1nc2ccccc2c2c1-c1ccc(Cl)cc1C2=O`, the GI50 was 1.25 µM in test [1]; 1.21 µM in test [2]; 1.36 µM in [3]; 0.324 µM in test [4]; 0.443 µM in [5]; 1.38 µM in test [6]. For the same compound, the GI50 in test [7] was 0.622 µM; in test [8], 1.07 µM; in test [9] it was 0.386 µM; in [10], 0.933 µM. For the same compound, the TGI was determined as 2.97 µM in test [1]; 2.67 µM in [3]; 1.39 µM in test [4]; 1.72 µM in [5]; 2.93 µM in test [6]; 1.85 µM in test [7]. Moreover, the TGI in [8] amounted to 2.43 µM; in [9], 2.22 µM; in test [10] it was 3.37 µM.

The record behind these values is PubChem BioAssay (NCI).
